One molecule from patent US20160038518A1, “METHODS FOR TREATING PSORIASIS AND VASCULAR INFLAMMATION” (VASCULAR BIOGENICS LTD., priority 2012, published 2016) can be followed below.

How the values of data set [1] were obtained:
Additional criteria included change in affected body surface area from baseline to week 12, change in PGA score from baseline to week 12, any change relative to baseline PASI score, and change in Patient Psoriasis Global Assessment (PtGA) score from baseline to week 12. Blood samples were taken at weeks 4, 8 and 12, in order to assess VB-201 pharmacokinetics, as well as plasma cytokine levels. Safety of VB-201 administration was evaluated by physical examination, incidence of adverse effects, vital signs, clinical chemistry, hematology, urinalysis and electrocardiograms.

In data set [2] the test system is patients with moderate to severe plaque psoriasis. Description: safety evaluation in the Phase II clinical study. Format: in vivo, human. As for the experimental part: The efficacy analyses were performed on the data from a modified intention-to-treat (MITT) population (defined as all patients randomized who received at least one dose of medication and had at least one efficacy evaluation). The safety analyses were performed on all randomized patients who received at least one dose of the drug.

Data set [3] concerns inflammation associated with the breast implants. In words: 18-FDG PET/CT of a patient with breast implants. The class given is in vivo, human. As to conditions: one patient, 20 mg/day, 12 weeks, FIG. 6. How it is done: A patient with breast implants was treated with VD-201 at 20 mg/day for 12 weeks. PET-CT scans were done at baseline and at 12 weeks, using positron emission computed tomography (PET/CT) imaging quantifying 18-fluorodeoxyglucose (18-FDG) uptake as a TBR as described in Example 1.

The subject of data set [4] is vascular inflammation of carotid arteries and ascending aorta in patients with moderate to severe plaque psoriasis. In words: 18-FDG PET/CT sub-study of phase 2 trial: vascular inflammation as target to background ratio (TBR). The class given is in vivo, human. The conditions noted are these: 12 weeks. The source says:
This study was a sub-study of the above phase 2, randomized, double-blind, multicenter trial, of patients (aged 18-75) with moderate to severe plaque psoriasis, see also infra at Example 3. […] In addition, patients enrolled into the sub-study had to have the presence or history of one of the following: non-insulin dependent diabetes mellitus (NIDDM), peripheral vascular disease (PVD), smoker, hypertension, ischemic heart disease or cerebrovascular disease; obesity (BMI ≧25), hypercholesterolemia (LDL>160 mg/dL or taking anti-hyperlipidemia treatment), or family history of ischemic heart disease (in brother or father before age 55, in sister or mother before age 65) or at least 40 years of age with a history of psoriasis for at least 7 years. Patients were randomly assigned (1:1:1) to receive VB-201 20 mg, VB-201 80 mg or placebo for 12 weeks. The primary endpoint was the maximum TBR in the most diseased segment (MDS) of an index vessel at 12 weeks (percent change from baseline). The effect of treatment with 20 mg per day and 80 mg per day VB-201 on carotid arteries and ascending aorta inflammation was examined. Inflammation was measured by positron emission computed tomography (PET-CT) to quantify 18-fluorodeoxyglucose (18-FDG) uptake as a target to background ratio (TBR).
[…] imaging was performed following an overnight fast using a PET-CT scanner system with CT attenuation correction. 18-FDG was administered intravenously at a dose of 370 MBq and PET images were acquired approximately 90 minutes after injection. Baseline scans were evaluated and all inflammatory plaques in the left and right carotid arteries and ascending aorta were identified and totaled for each treatment group. PET scans were performed at Harvard Medical School and Massachusetts General Hospital, Boston, Mass., USA and at Translational and Molecular Imaging Institute and Department of Radiology, Mount Sinai School of Medicine, New York, N.Y., USA. All scans were analyzed by a central reader at the Mount Sinai center in New York City. The TBR was calculated from the ratio of the standard uptake values (SUV) of the target compared to background venous activity:
TBR (Target Background Ratio)=Target activity SUVTarget/SUV Background Venous Activity
The baseline and 12-week PET/CT datasets for each patient were structurally co-registered with each other, and FDG uptake was compared across each patient's images within pre-defined sections of the target vessels. For the aorta, measurements were made every 3 mm, starting 1 cm above the aortic valve annulus, continuing to the bottom of the aortic arch. For the right and left carotids, measurements were made every 3 mm, starting at the level of the carotid artery bifurcation, and continuing inferiorly 4 cm into the common carotid artery. Measurements were made in the axial plane by drawing a region of interest (ROI) around the artery wall and the maximum standardized uptake value (SUV) was recorded as the time- and dose-corrected tissue radioactivity divided by body weight. This represented the values for the target tissue. For the carotid arteries, the SUV Mean from the lumen of the jugular vein was used in at least 10 consecutive slices (at least 5 on each side). For the aorta, the background SUVMean from the atrium or SVC was used in at least 10 consecutive slices.
All statistical tests were two-sided with a significance level of 5%, unless specified otherwise, and were performed using SASS Version 9.2. Data was summarized using descriptive statistics (number of patients [N], mean, standard deviation [SD], median, minimum, and maximum).
Subjects were scanned by PET-CT to determine baseline 18-FDG uptake, and those with a TBR of at least 1.6 in either the carotid artery or the ascending aorta were selected. After screening and establishment of a baseline, eligible subjects were randomly assigned to receive 20 mg per day VB-201, 80 mg per day VB-201 or a daily placebo, for a period of 12 weeks. […]

Setting [5] is: 80 mg group, patients not taking concomitant statins.
Setting [6] is: patients taking statins (6 on 20 mg and 6 on 80 mg), p=0.01.

Read-outs that look alike come from different tables or passages of the source.

`CCCCCCCCCCCCCCCCOC[C@H](COP(=O)([O-])OCC[N+](C)(C)C)OCCCCC(=O)O` [VB-201, 1-hexadecyl-2-(4′-carboxy)butyl-sn-glycero-3-phosphocholine]: the results for the “mean VB-201 trough level” value in data set [1] (patients in quartile 1) and in data set [1] (patients in quartile 4) were “about 0 ng/mL” and “about 3,640 ng/mL”, respectively. Besides, the “severity of diarrhea cases” value in data set [2] (80 mg/day) was “mild (Grade 1) and transient”. The same molecule showed a diarrhea rate in data set [2] (80 mg/day (placebo 6.8%)) of 15.3%. Moreover, the safety and tolerability result in data set [2] (PET-CT sub-study, 20 or 80 mg/day, 12 weeks) was “safe and well tolerated”. In addition, the tolerability result in data set [2] (doses of 20 mg/day and 80 mg/day) is “well tolerated”. In addition, the “overall rate of Serious Adverse Events” value in data set [2] (main study, 2 subjects) is recorded as 1.6%. The deaths on therapy result in data set [2] (main study, 12 weeks) is recorded as “No deaths occurred on therapy”. Besides, the “related Serious Adverse Events” value in data set [2] (main study, 12 weeks) is reported as “No related Serious Adverse Events were observed”. Besides, the “overall rate of discontinuation due to Adverse Events” value in data set [2] (on VB-201, 4 subjects) is 3.2%. Also, in data set [3], the “inflammation surrounding the breast implants (18-FDG uptake)” value was “reduced inflammation surrounding the breast implants”. The “change from baseline in 18-FDG-PET MDS TBR of the index vessel” value was −7.3% in data set [4] (20 mg/day, p=0.14) and −12.7% in data set [4] (80 mg/day, p=0.04). For the same molecule, the “mean change from baseline of the maximum TBR in the MDS in the index vessel” value in data set [4] (setting [5]) is reported as −0.39; in data set [4] (setting [6]), −0.74. Also, the “percent change from baseline of the maximum TBR in the MDS in the index vessel” value in data set [4] (setting [5]) is reported as −8.84%; in data set [4] (setting [6]), −18.48%. In addition, the “dose response of TBR change across quartiles of VB-201 trough blood levels” value in data set [4] (p=0.037, FIG. 5) was “A dose response was seen”. Besides, the “reduction from baseline in vascular inflammation based on PET-CT measure” value in data set [4] (VB-201 80 mg group, p=0.04) is listed as 12.7%; in data set [4] (combined VB-201 treated group, p=0.01), 9.8%. The “inflammation of the ascending aorta (18-FDG uptake)” value in data set [4] (one patient with breast implants, 20 mg/day, FIG. 6) is on record as “inflammation of the aorta in the patient was also reduced”.
